Measurements reported in patent US20250319211A1, “NEAR IR LUMINESCENCE AND OPTICALLY ADDRESSABLE QUANTUM SENSING AND MAGNETIC IMAGING WITH RADICALOID TETRATHIAFULVALENE TETRATHIOLATES” (The University of Chicago, priority 2022, published 2025).

Key:
[1] = Cell viability assay after 72 hr treatment; type: cell-based; conditions: 1% DMSO solution, preliminary
Excerpt: FIG. 21 is a cell viability assay of compound 4 after 72 hr treatment, using 1% DMSO solution in accordance with certain disclosed embodiments.

[2] = Reactivity in the presence of small nucleophiles and ubiquitin (preliminary proteomics studies); conditions: ubiquitin
[3] = Stability of compound 4 (irradiation, air, serum, buffer, water); type: physicochemical
[4] = Photoluminescence quantum yield determination; type: physicochemical
Description: For the photoluminescence spectroscopy, all emission spectra were acquired on a Horiba Scientific PTI QuantaMaster fluorometer. Low temperature emission spectra were recorded by adding samples in 1:1 DCM:toluene into quartz EPR tubes and lowering the tube into an optical dewar filled with liquid N2. Excitation emission matrices were acquired on a Horiba Scientific Fluorolog-3 spectrofluorometer.
The samples, sealed in NMR tubes, were individually placed in an integrating sphere (Thorlabs, IS200-4) with a PbSe detector (Thorlabs, PDA20H) on one port and directly excited by an 808 nm diode laser (Thorlabs, M9-808-0150) of 15 W/cm^2 average intensity under 1 kHz square-wave modulation. The detector signal S, with and without a silicon window on the detector port, was recorded with the sample and with a DCM blank. […] The photoluminescence quantum yield is therefore SS,Si/(SD−SS)×( ? 808/ ? λS)×T^−1 where the subscripts S, D and Si respectively denote the sample, DCM blank, and silicon window. R is the wavelength-dependent PbSe detector responsivity, T is the total emission power transmitted by the silicon window, and λS is the average emission wavelength determined by integration of the spectrum. The detector responsivity is linear with wavelength in this spectral range so that ? 808/ ? λS=808/λS. Due to the spectral overlap between the sample emission and the soft absorption edge of silicon, we calculate T explicitly as ∫E(λ)dλ×
where E(λ) is the normalized sample emission spectrum and T(λ) is the T(λ) normalized silicon window transmission spectrum.
Comparative results for the diradical dication PtTTFtt against a conventional near IR dye (IR 26) provide PLQY of 0.09% in oxygenated 1,2-dichloroethane for compound 2 (PtTTFtt) in comparison to 0.05% for IR 26, as illustrated in FIG. 10.

[5] = 1,2-dichloroethane, background statement; cited from earlier work
[6] = 1,2-dichloroethane, background statement; cited from earlier work; remark: listed apart in the source

## (Pt{1,5-cyclooctadiene})2 tetrathiafulvalene-2,3,6,7 tetrathiolate diradical dication [Compound 4]
[1]
  toxicity: nontoxic
[2]
  integrity after exposure to proteins and small nucleophiles: remains intact
[3]
  stability to air, fetal bovine serum and phosphate buffer: demonstrated
[3]; continuous irradiation
  persistence of photoluminescence: 21 h
[3]; crystallized out of 1:2 MeCN:water over 6 months
  stability to water and air: remarkable stability

## [(Pt{dppe})2TTFtt][BAr^F4]2 [Compound 2]
[4]; oxygenated 1,2-dichloroethane
  photoluminescence quantum yield (PLQY): 0.09%

## ClC1=C(/C=C/c2cc(-c3ccccc3)[s+]c3ccccc23)CCC/C1=C\C=C1/C=C(c2ccccc2)Sc2ccccc21.[O-][Cl+3]([O-])([O-])[O-] [IR 26, 4-(7-(2-phenyl-4H-1-benzothiopyran-4-ylidene)-4-chloro-3,5-trimethylene-1,3,5-heptatrienyl)-2-phenyl-1-benzothiopyrylium perchlorate]
[5]
  emission: around 1130 nm
[6]
  PLQY: 0.05%
[4]; oxygenated 1,2-dichloroethane
  photoluminescence quantum yield (PLQY): 0.05%

## [(Pt{P(4-CF3Ph)3}2)2TTFtt][BAr^F4]2 [Compound 3]
[4]; 57 μM, dichloromethane, 298K, anaerobic conditions, highest of compounds 1-3
  photoluminescence quantum yield (PLQY): 0.43%
